Reference: paper PMC5971566, “Population Pharmacokinetic Analyses for Rezafungin (CD101) Efficacy Using Phase 1 Data” (Antimicrobial Agents and Chemotherapy, 2018)
Numbered stars: 1 amine (or outer) side, 2 acyl side, 3 side chain; on linkers, the order of the positions; unused ones are H or OH. Bridge positions count the residues as written; N and C are the ends. Square brackets hold non-standard residues; d marks the D form. Peptide text beside a SMILES is read from it. * marks the point of attachment. Orn(4R-OH,5R-OCH2CH2NMe3+) = C[N+](C)(C)CCO[C@@H](N[*:3])[C@H](O)C[C@H](N[*:1])C(=O)[*:2]; pTerphenylCO(4''-OnC5H11) = CCCCCOc1ccc(-c2ccc(-c3ccc(C(=O)*)cc3)cc2)cc1; hTyr(3S-OH,4S-OH) = N[C@H](C(=O)O)[C@H](O)[C@@H](O)c1ccc(O)cc1; Pro(3S-OH,4S-Me) = C[C@H]1CN[C@H](C(=O)O)[C@H]1O; Hyp = O=C(O)[C@@H]1C[C@@H](O)CN1

Assays:
[1] = Population PK model of rezafungin plasma concentrations, pooled phase 1 single- and multiple-ascending-dose i.v. data; assay type: in vivo, humans (healthy subjects)
Text: Data were pooled from two phase 1 studies (ClinicalTrials.gov registration no. NCT02516904 and NCT02551549) previously described by Sandison et al. ([8]). The protocols and informed consent were reviewed and approved by an appropriate institutional review board before subject enrollment. The studies were designed and monitored in compliance with the ethical principles of good clinical practice and in accordance with the Declaration of Helsinki.
The first study (ClinicalTrials.gov registration no. NCT2516904) evaluated single i.v. doses of rezafungin. A total of 32 subjects were enrolled and randomized evenly to one of four cohorts. Within each cohort, six subjects were administered rezafungin and two subjects were administered placebo as a single 60-min i.v. infusion. A single rezafungin dose of 50, 100, 200, and 400 mg was administered to cohorts 1, 2, 3, and 4, respectively. In all cohorts, blood samples for PK evaluations were collected predose and at 0.25, 0.5, 1, 1.5, 2, 4, 6, 8, 12, 24, 48, and 120 h after the start of infusion and on days 7, 14 (±1 day), and 21 (±1 day).
The second study (ClinicalTrials.gov registration no. NCT02551549) evaluated multiple i.v. doses of rezafungin. A total of 24 subjects were enrolled and randomized evenly to one of three cohorts. Within cohorts 1 and 2, six subjects were administered once-weekly i.v. doses of rezafungin at 100 and 200 mg, respectively, and two subjects were administered once-weekly i.v. doses of placebo, infused over 60 min on days 1 and 8. Within cohort 3, six subjects were administered once-weekly i.v. rezafungin doses of 400 mg and two subjects were administered once-weekly i.v. doses of placebo, infused over 60 min on days 1, 8, and 15. Blood samples were collected predose and at 0.5, 1, 1.5, 2, 4, 6, 8, 12, 24, 48, and 120 h after the start of each infusion and on days 7, 14 (±1 day), 21 (±1 day), and 35 (±1 day, cohort 3 only).
(§1) All blood samples were collected using tubes with K2-EDTA. Plasma was collected by centrifugation and stored at −70°C until analysis. Samples were analyzed using a 100-μl aliquot volume and a protein-precipitation extraction procedure followed by liquid chromatography/tandem mass spectrometry analysis. The rezafungin calibration range was 10.0 ng/ml to 10,000 ng/ml, using d9-CD101 as an internal standard. The range of the assay was extended 10-fold by dilution. An AB-Sciex API 4000 system was operated in the selected reaction-monitoring mode under optimized conditions for detection of rezafungin and d9-CD101 positive ions formed by electrospray ionization. Excellent interassay accuracy and precision, as measured by the use of quality control (QC) samples, were obtained during validation. Across the range of QC samples tested (lower limit of quantitation through the high-QC range), the interassay accuracy (percent bias from nominal) ranged from 0.3% to 4.3%, while the interassay precision (percent CV) ranged from 2.7% to 5%. Dilution QC samples performed well, with −1.5% bias and an interassay precision of 3.4%.
Candidate population PK models were fit to the pooled data using Monte Carlo parametric expectation maximization as implemented in the open-source software program S-ADAPT (version 1.5.6) ([22][–][24]). The model selection criteria used to discriminate between candidate PK models included (i) evaluation of individual and population mean parameter estimates and their precision (standard error of the mean [SEM]), (ii) graphical examination of standard goodness-of-fit plots and plots of the observed versus individual predicted concentrations, (iii) reductions in both residual variability and interindividual variability, and (iv) comparison of the objective function for nested models or the Akaike information criterion ([25]) for either nested or nonnested models.
Interindividual variability was estimated for each structural population PK model parameter, where possible, by using an exponential-error model. […]

Candida glabrata = settings: including azole- and echinocandin-resistant isolates; ref not given; cited from earlier work
Text: (§2) Historically, Candida albicans has been the predominant pathogen in candidemia and invasive candidiasis infections ([1]). Despite this, Candida glabrata is now emerging as a greater concern for clinicians due to a recent increase in prevalence among candidemia and invasive candidiasis infections and the pathogen's natural predisposition for expressing azole and echinocandin resistance mutations ([2], [3]). Accordingly, the incidence of infections due to C. glabrata not only has increased more than 4-fold over the past 20 years ([4]) but also has been accompanied by an increased prevalence of b ...

Candida albicans = settings: including azole- and echinocandin-resistant isolates; ref not given; cited from earlier work
Text: as §2

C. albicans isolates = settings: cited from earlier work
Text: as §2

C. glabrata isolates = settings: including an echinocandin-resistant C. glabrata isolate; cited from earlier work
Text: as §2

[2] = cited from earlier work
Protocol: One of the unique features of rezafungin is its long half-life. […] This value far exceeds those reported for other echinocandins, which have terminal half-lives ranging from 9 to 52 h ([9][–][11]). […] Given rezafungin's long half-life, it is being evaluated ...

[3] = 400 mg the highest dose evaluated; cited from earlier work
Protocol: One of the unique features of rezafungin is its long half-life. […] This value far exceeds those reported for other echinocandins, which have terminal half-lives ranging from 9 to 52 h ([9][–][11]). […] Moreover, the model- ...

[4] = Stability of rezafungin in plasma samples (bioanalytical validation, LC-MS/MS); assay type: in vitro ADME; settings: K2-EDTA plasma samples
Protocol: as §1

[5] = healthy subjects n = 42, i.v., four-compartment population PK model
[6] = weight power function centered on 75 kg, power fixed to 0.75
[7] = weight power function centered on 75 kg, power fixed to 1.0

CCCCCOc1ccc(-c2ccc(-c3ccc(C(=O)N[C@H]4C[C@@H](O)[C@@H](OCC[N+](C)(C)C)NC(=O)[C@@H]5[C@@H](O)[C@@H](C)CN5C(=O)[C@H]([C@@H](C)O)NC(=O)[C@H]([C@H](O)[C@@H](O)c5ccc(O)cc5)NC(=O)[C@@H]5C[C@@H](O)CN5C(=O)[C@H]([C@@H](C)O)NC4=O)cc3)cc2)cc1 [Rezafungin] ({pTerphenylCO(4''-OnC5H11)}-[Orn(4R-OH,5R-OCH2CH2NMe3+)]T[Hyp][hTyr(3S-OH,4S-OH)]T[Pro(3S-OH,4S-Me)]; lactam 1-C)
rezafungin clearance, typical 50-kg subject ([1]; final population PK model, allometric scaling, 50 kg): 0.138 L/h
rezafungin clearance, typical 100-kg subject ([1]; final population PK model, allometric scaling, 100 kg): 0.232 L/h
Q2, distributional clearance, population mean final estimate [1, 5]: 24.4 L/h
Q3, distributional clearance, population mean final estimate [1, 5]: 0.912 L/h
Q4, distributional clearance, population mean final estimate [1, 5]: 0.0739 L/h
V2, volume of distribution of the peripheral compartment, population mean final estimate [1, 5]: 12.6 L
V3, volume of distribution of the peripheral compartment, population mean final estimate [1, 5]: 8.75 L
V4, volume of distribution of the peripheral compartment, population mean final estimate [1, 5]: 27.9 L
Vc, volume of distribution of the central compartment, population mean final estimate [1, 5]: 8.94 L
clearance ([1]; human, iv, healthy subjects n = 42, i.v. 60-min infusion 50-400 mg single or once weekly, plasma, linear four-compartment model, S-ADAPT, read-out: CL, total clearance, population mean final estimate (converted)): 3.13 mL/min
CL coefficient, population mean final estimate [1, 6]: 0.187 liter/h/75 kg
Q2 coefficient, population mean final estimate [1, 6]: 24.3 liters/h/75 kg
Q3 coefficient, population mean final estimate [1, 6]: 0.908 liter/h/75 kg
Q4 coefficient, population mean final estimate [1, 6]: 0.0736 liter/h/75 kg
V2 coefficient, population mean final estimate [1, 7]: 12.5 liters/75 kg
V3 coefficient, population mean final estimate [1, 7]: 8.70 liters/75 kg
V4 coefficient, population mean final estimate [1, 7]: 27.7 liters/75 kg
Vc coefficient, population mean final estimate [1, 7]: 8.88 liters/75 kg
in vitro activity against C. glabrata (Candida glabrata): potent in vitro activity
in vitro activity against C. albicans (Candida albicans): potent in vitro activity
in vivo activity against a range of C. albicans isolates (C. albicans isolates): in vivo activity
in vivo activity against a range of C. glabrata isolates (C. glabrata isolates): in vivo activity
serious or severe adverse events ([2]; either phase 1 study): No serious or severe adverse events were observed
patients with moderate treatment-related adverse events ([2]; of the 42 patients evaluated, phase 1 studies): 4
safety signals ([2]; phase 1 studies): no safety signals were noted
dose proportionality of maximum concentration, AUC and half-life [3]: dose proportional up to 400 mg
freeze-thaw stability [4]: stable through four freeze-thaw cycles
stability under frozen storage conditions ([4]; either at −20°C or at −70°C): at least 164 days
stability at room temperature ([4]; room temperature): at least 24 h
